# In patent publication US11440903B2, “Salt form and crystal form of compound as FGFR4 inhibitor and preparation method thereof” (GUANGDONG ZHONGSHENG PHARMACEUTICAL CO., LTD, priority 2017, dated 2022):
# Read-outs that look alike come from different tables or passages of the source.
# Key:
# [1] = Solubility test in biological media (FaSSIF, FeSSIF, SGF) and water, 37° C.; format: physicochemical; settings: for Status (24 h) / solubility at 24 h / pH 24 hours: 37° C.; for Status (24 h): about 4 mg in 2 mL; for solubility at 24 h: salt forms converted to salt concentrations, read-out: Solubility (mg/mL) 24 hours; for pH 24 hours: supernatant; for pH 0 hour: initial
# Method: Step 1: Preparation of Control Solutions (0.2 mg/mL, calculated by free base)
# 2 mg the crystal form B of the compound represented by formula (I) (or 2.4 mg the crystal form E of the compound represented by formula (II)) as a control was precisely weighed and placed into a 40 mL glass vial, and a diluent (10 mL) was precisely added. The reaction solution was subjected to ultrasonic treatment for 20 min to sufficiently dissolve, then cooled to room temperature and shaked well. Two control solutions (STD #1, STD #2) were formulated in accordance with this method.
# Step 2: Preparation of Linear Solutions
# The control solution STD #1 of the crystal form B of the compound represented by formula (I) was 1×, 10×, 100×, 1000× and 2000× (free base LOQ) diluted, and designated as the linear solutions L1, L2, L3, L4 and L5; the control solution STD #1 of the crystal form E of the compound represented by formula (II) was 1×, 10×, 100× and 1000× (methanesulfonate LOQ) diluted, and designated as the linear solutions L1, L2, L3, L4.
# Step 3: Solubility Test of the crystal form B of the compound represented by formula (I), the crystal form G of the compound represented by formula (III) and the crystal form E of the compound represented by formula (II) in biological media and water
# 4 samples (about 4 mg) of each of the crystal form B of the compound represented by formula (I), the crystal form E of the compound represented by formula (II), and the crystal form G of the compound represented by formula (III) were added into 12 glass vials (4 mL), respectively, and then 2 mL different biological media (FaSSIF, FeSSIF, SGF) and water were added into each compound respectively, then mixed homogeneously to form a suspension. The suspension was detected for its initial pH value. A magnet was added into the suspension, and placed on a magnetic stirring heater for stirring (at a temperature of 37° C., in dark). After stirring for 24 h, a sample was taken. The taken sample was quickly centrifuged, and the residual solid was detected by XRPD. The supernatant was detected for its pH value and diluted with a diluent into appropriate multiple, then measured with HPLC for its concentration.
# FaSSIF: 1. 0.042 g sodium hydroxide, 0.3438 g sodium dihydrogen phosphate and 0.6186 g sodium chloride were weighed, added into 90 mL purified water, and homogeneously mixed, then, the mixture was adjusted with 1 N hydrochloric acid or 1 N sodium hydroxide to pH=6.5, and diluted into a constant volume of 100 mL with purified water; 2. 50 mL of the buffer described above was taken, and 0.224 g commercially available powder (Biorelevant.com) of FaSSIF/FeSSIF/FaSSGF was added thereto, the mixture was stirred to dissolve, and diluted with purified water to a constant volume of 100 mL.
# FeSSIF: 1. 0.404 g sodium hydroxide, 0.865 g glacial acetic acid, and 1.1874 g sodium chloride were weighed, added into 90 mL purified water, and homogeneously mixed, then, the mixture was adjusted with 1 N hydrochloric acid or 1 N sodium hydroxide to pH=5.0, and diluted with purified water to a constant volume of 100 mL, 2. 50 mL of the buffer described above was taken, and 1.12 g commercially available powder (Biorelevant.com) of FaSSIF/FeSSIF/FaSSGF was added thereto, the mixture was stirred to dissolve, and diluted with purified water to a constant volume of 100 mL.
# FaSSGF (SGF): 1. 0.2 g sodium chloride was weighed, added into 90 mL purified water, and mixed homogeneously, the mixture was adjusted with 1 N hydrochloric acid to pH=1.8, and diluted with purified water to a constant volume of 100 mL, and stood at room temperature.
# [2] = Stability of the crystal form on stirring as suspension in solvent (40° C., 2 days); format: physicochemical; settings: stirring in acetone at 40° C.
# Method: 30 mg of the compound represented by formula (I) was weighed and added into a glass flask, 400 μL acetonitrile-water (1:1) was added to form a suspension. A sample of the suspension was placed on a magnetic stirrer (40° C.) for a dark stirring experiment. The sample of the suspension was centrifuged after stirring at 40° C. for 2 days, and then the residual sample was dried in a vacuum drying oven (30° C.) overnight to give a crystal form A of the compound represented by formula (I). The XRPD pattern of the crystal form A of the compound represented by formula (I) is shown in FIG. 1, the DSC pattern is shown in FIG. 2, and the TGA pattern is shown in FIG. 3.
# 30 mg of the compound represented by formula (I) was weighed and added into a glass flask, and 400 μL ethyl acetate was added to form a suspension. A sample of the suspension was placed on a magnetic stirrer (40° C.) for dark stirring experiment. The sample of the suspension was centrifuged after stirring at 40° C. for 2 days, and then the residual sample was dried in a vacuum drying oven (30° C.) overnight. The crystal form was detected by XRPD to give a crystal form A of the compound represented by formula (I).
# 30 mg of the compound represented by formula (I) was weighed and added into a glass flask, and 400 μL methanol was added to form a suspension. A sample of the suspension was placed on a magnetic stirrer (40° C.) for dark stirring experiment. The sample of the suspension was centrifuged after stirring at 40° C. for 2 days, and then the residual sample was dried in a vacuum drying oven (30° C.) overnight to give a crystal form B of the compound represented by formula (I). The XRPD pattern of the crystal form B of the compound represented by formula (I) is shown in FIG. 4, the DSC pattern is shown in FIG. 5, and the TGA pattern is shown in FIG. 6.
# 50 mg of the compound represented by formula (I) was weighed and added into a 1.5 mL liquid vial, and 200 μL methanol was added thereto, the obtained mixture was homogeneously mixed under ultrasound. The dissolved sample was quickly centrifuged, and the supernatant was placed in a centrifuge tube, the mouth of the tube was packed with a pierced aluminum foil, and then the tube was placed in a fume cupboard for volatilization; the sample of the suspension was placed on a magnetic stirring heater (40° C.) for stirring (in dark), and quickly centrifuged after 2 days. The resultant solid was collected and dried at 30° C. in a vacuum drying oven overnight to give the crystal form C of the compound represented by formula (I). The XRPD pattern of the crystal form C of the compound represented by formula (I) is shown in FIG. 7, the DSC pattern is shown in FIG. 8, and the TGA pattern is shown in FIG. 9.
# 50 mg of the compound represented by formula (I) was weighed and added into a 1.5 mL liquid vial, and 200 μL ethanol was added thereto, and the obtained mixture was homogeneously mixed under ultrasound. The dissolved sample was quickly centrifuged, the supernatant was placed into a centrifuge tube, and the mouth of the tube was packed with a pierced aluminum foil, and placed in a fume cupboard for volatilization; the sample of the suspension was placed on a magnetic stirring heater (40° C.) for stirring (in dark), and quickly centrifuged after 2 days. The solid obtained as above was collected and dried at 30° C. in a vacuum drying oven overnight to give a crystal form D of the compound represented by formula (I). The XRPD pattern of the crystal form D of the compound represented by formula (I) is shown in FIG. 10, the DSC pattern is shown in FIG. 11, and the TGA pattern is shown in FIG. 12.
# 35 mg of the compound represented by formula (II) was weighed and added into a 1.5 mL liquid vial, and 400 μL methanol was added thereto, and the obtained mixture was homogeneously mixed under ultrasound. […]
# FGFR1 protein kinase = molecular target: T1, FGFR1 protein kinase (Homo sapiens, UniProt P11362); experiment: In vitro enzyme activity test, Z'-LYTE Assay, FGFR1 enzymatic reaction; format: biochemical; settings: 25 uM ATP, room temperature 60 min
# T1 construct: purchased Life technology
# T1 sequence (P11362 22-822): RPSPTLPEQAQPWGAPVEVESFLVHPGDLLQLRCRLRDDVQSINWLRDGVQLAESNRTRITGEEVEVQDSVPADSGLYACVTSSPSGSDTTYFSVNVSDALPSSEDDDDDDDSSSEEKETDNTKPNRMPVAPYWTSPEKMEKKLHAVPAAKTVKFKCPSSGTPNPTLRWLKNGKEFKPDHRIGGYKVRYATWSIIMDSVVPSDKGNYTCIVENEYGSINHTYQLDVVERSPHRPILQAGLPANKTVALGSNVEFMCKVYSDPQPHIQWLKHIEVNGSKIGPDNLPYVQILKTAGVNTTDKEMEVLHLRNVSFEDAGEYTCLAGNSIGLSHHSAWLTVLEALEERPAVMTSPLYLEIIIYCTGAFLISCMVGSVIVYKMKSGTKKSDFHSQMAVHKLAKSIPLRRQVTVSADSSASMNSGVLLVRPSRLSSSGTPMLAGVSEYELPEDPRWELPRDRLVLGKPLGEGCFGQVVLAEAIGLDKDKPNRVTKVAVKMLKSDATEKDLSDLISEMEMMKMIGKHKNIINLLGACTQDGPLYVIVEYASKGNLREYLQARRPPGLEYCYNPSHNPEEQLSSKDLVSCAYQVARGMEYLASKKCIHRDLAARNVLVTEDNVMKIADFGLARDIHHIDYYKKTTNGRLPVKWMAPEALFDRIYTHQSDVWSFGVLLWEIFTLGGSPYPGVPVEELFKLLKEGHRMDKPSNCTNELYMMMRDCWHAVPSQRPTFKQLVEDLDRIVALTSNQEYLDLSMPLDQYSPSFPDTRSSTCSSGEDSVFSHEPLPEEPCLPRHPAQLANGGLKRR
# Method: (§1) The enzyme activity was detected by Z′-LYTE® Assay with IC50 value of the compound used as an index for evaluating the inhibitory effect of the compound on FGFR4 kinases. The activity test was completed in Life technology.
# (§2) The test compound was subjected to 3× gradient dilution, and the final concentrations included 10 concentrations from 10 μM to 0.5 nM, with two duplicates per concentration; the content of DMSO used in the detection reaction was 1%.
# 1 nM FGFR1 protein kinase, 2 μM Tyr4 peptide, 25 uM ATP, 50 mM HEPES (pH 7.5), 10 mM MgCl2, 1 mM EGTA, 0.01% BRIJ-35, 2 mM MnCl2, and 1 mM DTT. The detection plate was Black Proxiplate 384-Plus plate (PerkinElmer), the reaction was implemented at room temperature for 60 min, and the reaction system was 10 μL.
# (§3) 5 μL Development reagent B (1:64) was added into the kinase reaction solution to stop the reaction, and the reaction solution was incubated at 23° C. for 60 min, the plate was read with Envision instrument.
# (§4) The data were converted to the phosphorylation rate and the inhibitory rate, and was subjected to curve fitting with Model 205 in XLFIT (iDBS) to give the IC50 data of the compound. If the bottom of the curve was not in the range of −20% to 20%, it was set as 0%; and if the top of the curve was not in the range of 70% to 130%, it was set as 100%.
# FGFR4 kinase = molecular target: T2, FGFR4 kinase (Homo sapiens, UniProt P22455); experiment: In vitro enzyme activity test, Z'-LYTE Assay, FGFR4 enzymatic reaction; format: biochemical; settings: 150 μM ATP, room temperature 60 min
# T2 construct: purchased Life technology
# T2 sequence (P22455 22-802): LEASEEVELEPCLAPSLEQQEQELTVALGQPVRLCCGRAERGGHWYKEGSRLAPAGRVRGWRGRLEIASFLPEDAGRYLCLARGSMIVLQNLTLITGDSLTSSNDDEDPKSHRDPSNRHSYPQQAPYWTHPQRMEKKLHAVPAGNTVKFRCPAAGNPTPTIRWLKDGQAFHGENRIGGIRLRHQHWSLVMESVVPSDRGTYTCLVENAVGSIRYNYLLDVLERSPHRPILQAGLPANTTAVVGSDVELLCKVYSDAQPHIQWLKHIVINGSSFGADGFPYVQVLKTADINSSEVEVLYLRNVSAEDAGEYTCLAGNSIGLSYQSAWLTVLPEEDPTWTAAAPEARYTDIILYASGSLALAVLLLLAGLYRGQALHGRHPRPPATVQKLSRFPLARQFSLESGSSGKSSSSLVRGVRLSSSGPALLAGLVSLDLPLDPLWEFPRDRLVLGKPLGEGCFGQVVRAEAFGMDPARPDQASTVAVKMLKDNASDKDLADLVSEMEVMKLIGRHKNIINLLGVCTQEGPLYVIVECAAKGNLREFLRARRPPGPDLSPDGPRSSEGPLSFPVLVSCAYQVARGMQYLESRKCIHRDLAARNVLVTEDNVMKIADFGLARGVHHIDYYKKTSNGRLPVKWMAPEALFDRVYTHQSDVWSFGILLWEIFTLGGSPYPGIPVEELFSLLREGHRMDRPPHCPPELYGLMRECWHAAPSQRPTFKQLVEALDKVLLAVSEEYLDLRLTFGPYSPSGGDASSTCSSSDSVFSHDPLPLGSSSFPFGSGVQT
# Method: as §1, §2
# […] The detection plate was Bar-coded Corning, low volume NBS, black 384-well plate, the reaction was implemented at room temperature for 60 min, and the reaction system was 10 μL.
# as §3, §4
Status (24 h) ([1]; FaSSIF),"solubility in three types of biological media, conclusion in words ([1]; FaSSIF, FeSSIF, SGF)",Status (24 h) ([1]; FeSSIF),"solubility at 24 h ([1]; SGF (FaSSGF), pH 1.8, simulated gastric fluid, thermodynamic from solid, SGF) [mg/mL]",Status (24 h) ([1]; SGF),Status (24 h) ([1]; Water),"solubility at 24 h ([1]; pH 5, thermodynamic from solid, FeSSIF) [mg/mL]","solubility at 24 h ([1]; pH 6.5, thermodynamic from solid, FaSSIF) [mg/mL]",pH 24 hours ([1]; FaSSIF),pH 24 hours ([1]; FeSSIF),pH 24 hours ([1]; SGF),pH 24 hours ([1]; Water),pH 0 hour ([1]; suspension in FaSSIF),pH 0 hour ([1]; suspension in FeSSIF),pH 0 hour ([1]; suspension in SGF),pH 0 hour ([1]; suspension in Water),"solubility at 24 h ([1]; thermodynamic from solid, Water) [mg/mL]",stability in the acetone solution [2],IC50 (FGFR1 protein kinase) [nM],IC50 (FGFR4 kinase) [nM],Compound
Suspension,good solubility,Suspension,0.045,Suspension,Suspension,0.668,0.079,6.38,4.99,2.14,2.47,6.54,4.87,2.03,2.34,0.028,substantially high stability,–,–,C=CC(=O)N[C@H]1COC[C@H]1Nc1ncc(/C=C(\F)c2c(Cl)c(OC)cc(OC)c2Cl)cn1.O=S(=O)(O)O
–,–,–,–,–,–,–,–,–,–,–,–,–,–,–,–,–,–,1460,17,C=CC(=O)N[C@H]1COC[C@H]1Nc1ncc(/C=C(\F)c2c(Cl)c(OC)cc(OC)c2Cl)cn1 [Compound represented by formula (I)]
